From article PMC7473840, “Identification of a molecular locus for normalizing dysregulated GABA release from interneurons in the Fragile X brain” (Molecular Psychiatry, 2018)
pKd: −log10 of the molar value. “Also recorded” adds a separate entry of the source.

Key:
adult Fmr1-KO mice = assay: Acoustic startle reflex (ASR); assay type: in vivo, mouse; settings: chow enriched with 0.5% w/w DHA for 1 week; n = 11 versus n = 10 control; double-blind
Protocol: As previously described, acoustic startle response was measured from 7–9-week-old mice, which were submitted to no pulse or a pulse stimulation (120 dB, 40 ms) alone or in combination of a prepulse (either 72, 78, or 82 dB, 20 ms). Maximal startle response was recorded and compared between groups for all types of trials. The sound attenuated chambers and analysis software were obtained from San Diego Instruments (San Diego, USA). One week prior to testing, mice were fed with normal chow or calorically equivalent chow enriched with 0.5% DHA (Sigma) prepared by Research Diets (New Brunswick, USA). Diets were prepared with identical dyes to be indistinguishable by eye. Mice were tested for acoustic startle response only once between 4 p.m. and 7 p.m.

WT mice = assay: Three-chambered sociability test, WT; assay type: in vivo, mouse; settings: 200 mg/kg
Description: (§1) The three-chambered sociability test was composed of three sessions: habituation (trail 1), sociability (trial 2), and social novelty (trial 3), which evaluated sociable behavior and recognition of social novelty. For habituation, 7–9-week-old testing male mouse was placed in the middle chamber and allowed to freely explore all three chambers. In the sociability session, a stranger mouse (the same strain and gender but never encountered before) was put underneath a grid cup and placed in one of the two side-chambers, while another identical empty cup was placed on the other side. In the social novelty session, another stranger mouse was put inside the previously empty cup. Each session lasted 9 min. Physical contacts around the cups with the nose, head, and forelimbs, were defined as sniffing behavior and used as an index for sociable behavior [47]. A camera, connected to a computer, was used to track mice activity using the ANY-maze software (ANY-maze, Stoelting Co., IL, USA). Testing was conducted 30 min after saline or DHA (200 mg/kg, Sigma) injection (intraperitoneal, i.p.) to minimize distress from drug administration and ensure normal physical activity that could be affected by DHA for a short period.

Fmr1-KO mice = assay: Three-chambered sociability test, Fmr1-KO; assay type: in vivo, mouse; settings: 200 mg/kg i.p., 30 min before test; 7–9-week-old male; n = 7
Description: as §1

[1] = ref [45]; cited from earlier work
BC–PN synapse, Fmr1-KO = assay: sIPSCs from PNs, Fmr1-KO synapses; assay type: cell-based, mouse; settings: 10 µM applied to Fmr1-KO cerebellar slices; n = 8
Kv1.2 = assay: K+ current by voltage ramp, CHO cells expressing Kv1.2-WT; assay type: cell-based; settings: 1 µM, n = 7
Description: Fig. 3 Direct interaction between FMRP and Kv1.2 in a phosphorylation-specific manner. a Illustration of an alpha subunit of Kv1.2 channel with extensive details of intracellular C-terminus. b K^+ current generated by a voltage ramp (−90 to 100 mV, top) from CHO cells expressing WT (Kv1.2-WT, middle) or truncated Kv1.2 (Kv1.2-Δ429-500, bottom) before and after infusion of N-terminus FMRP protein (n-FMRP, H00002332-P01, Novus Biologicals, 1:100 dilution). c The changes in amplitude of K^+ current by n-FMRP is summarized for Kv1.2-WT (n = 8) and Kv1.2-Δ429-500 (n = 8) constructs. d Co-IP of Kv1.2 and FMRP in the absence or presence of three peptides targeting the sequence (436–457) of C-terminus of Kv1.2 as highlighted in a phosphorylated (PhosKv436-457), non-phosphorylated (Kv436-457), and phosphorylated scrambled peptide. e Summary of effect of the three peptides. […] The changes in the amplitude and frequency of sIPSCs are summarized in the right panels for PhosKv436-457 (n = 6, f), non-phosphorylated Kv436-457 (n = 6, g), and scrambled (n = 5, h) peptides.
Fig. 5 DHA rescue and graphical overview of the function of FMRP at the BC–PN synapses. a, b Currents generated by a voltage ramp (−90 to 100 mV) from CHO cells transfected with recombinant Kv1.2 in the absence (black) or presence (red) of DHA (1 µM). These currents are fit with a Boltzmann function: f(V) = Imax/(1+e^(V1/2−V)/Vc)+C, in which “Imax” denotes the theoretical value of the maximal amplitude of Kv1.2 currents; “V1/2” indicates the depolarization voltage needed to produce the half-maximal amplitude of the currents; “Vc” is the slope factor describing the steepness of the Boltzmann curve. The parameters for the two groups (n = 7) are summarized in (b). c, d sIPSCs recorded from PNs in Fmr1-KO slices with (bottom) or without (top) DHA (10 µM). Changes in the amplitude and frequency of sIPSC (n = 8) are quantified in (d). e, f APs from PNs before (top) and after (bottom) DHA application (10 µM). […] In WT BCs, there are two populations of Kv1.2 channels being in either non-phosphorylated or phosphorylated state (with C-termini colored in black and turquoise respectively; +/−P to symbolize phosphate modification). The N-terminus of FMRP dimers directly interact with C-terminus of Kv1.2 only in a phosphorylated state. This interaction enhances the gating (Pathway 1), membrane targeting (Pathway 2), and/or axonal trafficking (Pathway 3) of Kv1.2 in the nerve terminal to control its excitability and Ca^2+ dynamics (blue) critical for tuning inhibitory neurotransmission and ensuring the final output from principal neurons (i.e., PNs). […]

[2] = system: PNs, Fmr1-KO cerebellar slices; assay: Spontaneous firing of PNs, cell-attached, Fmr1-KO; assay type: cell-based, mouse; settings: 10 µM, Fmr1-KO, cell-attached; n = 7
[3] = ref Invitrogen; read-out: Kd (Ca2+ indicator); cited from earlier work

| Compound | acoustic startle reflex from 120-dB sound stimulation (adult Fmr1-KO mice) | distance travelled during the trials (WT mice; WT, repeated one-way ANOVA, p>0.05) | social behavior of WT mice (WT mice; male C57BL/6J, n = 8, repeated two-way ANOVA) | sniffing time, stranger versus empty cup (WT mice; sociability session, WT, n = 8) | sniffing time, novel stranger versus familiar mouse (WT mice; social novelty session, WT, n = 8) | social novelty recognition (Fmr1-KO mice) | blood–brain barrier crossing [1] | amplitude and frequency of sIPSCs (BC–PN synapse, Fmr1-KO) | half-activation voltage (V1/2) (Kv1.2; Boltzmann fit) | maximal amplitude of Kv1.2 currents (Kv1.2; Boltzmann fit) | slope factor (Vc) (Kv1.2; Boltzmann fit) | shift in Kv1.2 currents evoked by voltage ramp (Kv1.2; ramp −90 to 100 mV) | spike (AP) frequency of PNs [2] | pKd [3] |
| --- | --- | --- | --- | --- | --- | --- | --- | --- | --- | --- | --- | --- | --- | --- |
| CC/C=C\C/C=C\C/C=C\C/C=C\C/C=C\C/C=C\CCC(=O)O [DHA, docosahexaenoic acid] | significantly attenuated ASR | No significant differences | did not affect social performance of WT mice; also recorded: did not alter the social behaviors of WT animals | spent more time sniffing the stranger than the empty cup | spent more time sniffing the novel stranger than the familiar one | improved the deficient social novelty recognition | can cross blood–brain barrier | reduced amplitude and frequency of sIPSCs | decreased the half-activation voltage (V1/2) | the maximal amplitude was unaffected | increased the slope factor (Vc) | a significant leftward shift in the Kv1.2 currents | increases the frequency of APs in the Fmr1-KO synapses; also recorded: enhanced the spike frequency of PNs, restoring the firing rate of Fmr1-KOs to the same level as the WTs |  |
| Fluo-4 |  |  |  |  |  |  |  |  |  |  |  |  |  | 6.46 |
